According to paper PMC3336786 (The FASEB Journal, 2012):
Changes are numbered by the printed parent chain. Values joined by “and” are separate entries in the source; they are usually repeats but may differ in a detail not shown here. Equal entries are not always repeated. Where two headings read alike, the source gives them in different places.

What was measured:
[1] = molecular target: T1, human α1β2 GABAA receptors (Homo sapiens, UniProt P14867+P47870); test: Two-electrode voltage clamp of α1β2 GABAA receptors in Xenopus oocytes; type: cell-based; conditions: for IC50: IC50, inhibition of GABA EC50 response
T1 sequence (P14867 28-456): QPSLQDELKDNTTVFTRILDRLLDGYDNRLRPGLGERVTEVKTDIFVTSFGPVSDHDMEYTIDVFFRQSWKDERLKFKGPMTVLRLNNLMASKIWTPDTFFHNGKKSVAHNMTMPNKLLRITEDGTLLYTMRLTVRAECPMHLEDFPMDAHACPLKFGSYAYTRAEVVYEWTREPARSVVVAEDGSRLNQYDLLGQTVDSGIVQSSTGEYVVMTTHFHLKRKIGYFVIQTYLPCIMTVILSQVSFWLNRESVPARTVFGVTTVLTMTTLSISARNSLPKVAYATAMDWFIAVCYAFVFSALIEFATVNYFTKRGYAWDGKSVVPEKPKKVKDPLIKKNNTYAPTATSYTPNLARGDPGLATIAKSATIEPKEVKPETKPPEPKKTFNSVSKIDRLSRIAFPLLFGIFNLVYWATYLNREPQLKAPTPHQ
T1 sequence (P47870 26-512): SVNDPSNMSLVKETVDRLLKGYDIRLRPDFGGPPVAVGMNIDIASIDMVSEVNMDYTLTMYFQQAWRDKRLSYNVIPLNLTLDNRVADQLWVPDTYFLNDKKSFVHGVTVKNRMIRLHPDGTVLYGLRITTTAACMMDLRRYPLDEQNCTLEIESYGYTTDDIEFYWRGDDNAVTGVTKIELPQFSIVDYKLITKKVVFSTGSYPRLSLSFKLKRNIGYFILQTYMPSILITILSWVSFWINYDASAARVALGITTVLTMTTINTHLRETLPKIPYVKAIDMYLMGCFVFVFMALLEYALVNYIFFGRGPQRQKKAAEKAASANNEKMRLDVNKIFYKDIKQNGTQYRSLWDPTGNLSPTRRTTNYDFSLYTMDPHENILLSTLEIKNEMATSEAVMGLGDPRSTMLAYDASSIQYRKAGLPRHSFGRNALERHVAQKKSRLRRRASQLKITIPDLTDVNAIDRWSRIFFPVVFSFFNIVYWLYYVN

α1V2'Aβ2γ2 = α1V2'Aβ2γ2 (Homo sapiens, UniProt P14867+P18507+P47870, V284A); type: cell-based
RDL = molecular target: T2, RDL (Drosophila melanogaster, UniProt P25123); type: cell-based
T2 sequence (P25123 45-606): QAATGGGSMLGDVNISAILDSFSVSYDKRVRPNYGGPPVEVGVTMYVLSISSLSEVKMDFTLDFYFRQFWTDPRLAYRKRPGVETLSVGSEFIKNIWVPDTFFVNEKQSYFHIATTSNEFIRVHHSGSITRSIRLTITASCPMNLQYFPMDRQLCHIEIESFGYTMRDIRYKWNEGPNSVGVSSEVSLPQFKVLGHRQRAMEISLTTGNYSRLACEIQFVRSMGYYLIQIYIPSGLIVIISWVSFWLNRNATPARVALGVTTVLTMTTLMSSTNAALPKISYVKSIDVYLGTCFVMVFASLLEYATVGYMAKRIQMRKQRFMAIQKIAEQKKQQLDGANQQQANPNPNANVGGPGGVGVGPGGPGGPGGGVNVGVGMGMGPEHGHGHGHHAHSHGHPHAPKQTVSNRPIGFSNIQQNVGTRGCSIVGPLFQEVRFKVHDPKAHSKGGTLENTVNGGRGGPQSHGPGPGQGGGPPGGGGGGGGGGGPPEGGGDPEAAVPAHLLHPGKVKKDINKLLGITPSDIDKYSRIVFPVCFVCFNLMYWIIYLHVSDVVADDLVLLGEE

RDLA2'V = molecular target: T3, RDLA2'V (Drosophila melanogaster, UniProt P25123, A301V); test: cell-based; type: cell-based
T3 sequence (P25123 45-606 A301V): T2 sequence (P25123 45-606) with A257V

α1V2'Aβ2 = molecular target: T4, α1V2'Aβ2 (Homo sapiens, UniProt P14867+P47870, V284A); type: cell-based
T4 sequence (P14867 28-456 V284A): T1 sequence (P14867 28-456) with V257A
T4 sequence (P47870 26-512): T1 sequence (P47870 26-512)

α1β2γ2 GABAA receptors = α1β2γ2 GABAA receptors (Homo sapiens, UniProt P14867+P18507+P47870); test: Two-electrode voltage clamp of α1β2γ2 GABAA receptors in Xenopus oocytes; type: cell-based
[2] = tested on: Canton-S adult D. melanogaster; test: Coated vial bioassay, wild-type; type: in vivo; conditions: for LD50: coated vial
RDLT6'V = molecular target: T5, RDLT6'V (Drosophila melanogaster, UniProt P25123, T305V); test: Two-electrode voltage clamp of RDLT6'V mutant receptors in Xenopus oocytes; type: cell-based
T5 sequence (P25123 45-606 T305V): T2 sequence (P25123 45-606) with T261V

[3] = tested on: dieldrin-resistant (Rdl) adult D. melanogaster; test: Coated vial bioassay, dieldrin-resistant; type: in vivo; conditions: flies with A2'S mutation; ginkgolides up to 5000 ppm (limited by solubility)
humans = conditions: cited from earlier work
[4] = concentration-inhibition curve at GABA EC50

Sequence of α1β2γ2 GABAA receptors (P18507 40-475, one chain of several): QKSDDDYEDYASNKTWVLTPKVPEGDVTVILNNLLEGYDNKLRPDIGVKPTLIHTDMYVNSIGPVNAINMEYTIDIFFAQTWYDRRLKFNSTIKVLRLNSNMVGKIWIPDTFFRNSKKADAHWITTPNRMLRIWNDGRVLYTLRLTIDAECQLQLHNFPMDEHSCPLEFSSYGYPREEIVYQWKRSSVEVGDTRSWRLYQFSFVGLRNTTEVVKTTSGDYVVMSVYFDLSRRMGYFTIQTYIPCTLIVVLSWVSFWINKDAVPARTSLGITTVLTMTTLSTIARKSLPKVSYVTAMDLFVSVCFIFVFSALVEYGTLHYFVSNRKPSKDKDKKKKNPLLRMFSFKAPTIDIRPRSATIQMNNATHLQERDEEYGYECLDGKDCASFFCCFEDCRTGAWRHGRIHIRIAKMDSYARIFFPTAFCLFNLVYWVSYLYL
Sequence of α1V2'Aβ2γ2 (P14867 28-456 V284A, one chain of several): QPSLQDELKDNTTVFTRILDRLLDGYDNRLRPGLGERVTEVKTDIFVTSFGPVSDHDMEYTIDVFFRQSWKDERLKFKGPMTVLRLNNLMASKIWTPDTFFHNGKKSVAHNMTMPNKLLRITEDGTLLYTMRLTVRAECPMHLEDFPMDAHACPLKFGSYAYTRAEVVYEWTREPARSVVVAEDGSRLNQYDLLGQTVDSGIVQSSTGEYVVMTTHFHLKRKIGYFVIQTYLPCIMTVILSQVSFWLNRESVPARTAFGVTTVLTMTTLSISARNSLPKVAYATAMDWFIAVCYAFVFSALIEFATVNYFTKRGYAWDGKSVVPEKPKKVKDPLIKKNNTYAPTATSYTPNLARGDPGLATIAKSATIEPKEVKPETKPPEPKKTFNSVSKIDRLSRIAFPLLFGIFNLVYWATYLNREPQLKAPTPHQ
Sequence of α1V2'Aβ2γ2 (P18507 40-475, one chain of several): as the sequence (P18507 40-475, one chain of several) above

Row | Compound | IC50 [1] [nM] | nH (Hill coefficient) [1, 4] | nH (Hill coefficient) (α1V2'Aβ2γ2; [4]) | nH (Hill coefficient) (RDL; [4]) | nH (Hill coefficient) (RDLA2'V; [4]) | nH (Hill coefficient) (α1V2'Aβ2; [4]) | IC50 (α1β2γ2 GABAA receptors) [nM] | nH (Hill coefficient) (α1β2γ2 GABAA receptors; [4]) | LD50 ([2]; 24 h) [mg/mL] | LD50 ([2]; 48 h) [mg/mL] | LD50 ([2]; 72 h) [mg/mL] | also measured
1 | CC(C)(C)[C@]1(O)CC2OC(=O)CC23C(=O)OC2OC(=O)[C@H](O)C231 (stereo partly shown) [BB, bilobalide] | 9330 | 0.85 ± 0.10 | 1.16 ± 0.20 | 0.89 ± 0.09 | 1.85 ± 0.21 | 1.06 ± 0.10 | 22900 | 0.68 ± 0.10 | 0.331 | 0.009 | 0.006 | IC50 (α1V2'Aβ2γ2): 3550 nM; IC50 (RDL): 316 nM; IC50 (α1V2'Aβ2; IC50, inhibition of GABA EC50 response): 2040 nM
2 | C[C@@H]1C(=O)O[C@H]2C[C@@]34[C@H]5C[C@@H](C(C)(C)C)[C@]36[C@@H](OC(=O)[C@@H]6O)O[C@@]4(C(=O)O5)[C@]21O [GA, ginkgolide A] | 15800 | 0.65 ± 0.08 | 0.86 ± 0.10 | 1.13 ± 0.18 | 1.48 ± 0.19 | 0.87 ± 0.14 | 38900 | 0.49 ± 0.07 | 0.345 | 0.063 | 0.019 | IC50 (RDL; IC50, inhibition of GABA EC50 response, second stable level of inhibition): 3 nM; IC50 (RDL; IC50, inhibition of GABA-evoked RDL currents, as printed in text and Fig. 6): 3.1 nM; IC50 (RDL; pIC50, inhibition of GABA EC50 response, second stable level of inhibition): 3.24 nM
3 | NCCCC(=O)O [GABA, γ-aminobutyric acid, reference compound] | – | – | – | – | – | – | – | – | – | – | – | nH (Hill coefficient) ([1]; GABA concentration-response): 1.43 ± 0.18; nH (Hill coefficient) (α1V2'Aβ2γ2; GABA concentration-response): 1.10 ± 0.11; nH (Hill coefficient) (RDL; GABA concentration-response): 1.8 and 1.80 ± 0.20; nH (Hill coefficient) (RDLT6'V; GABA concentration-response): 1.44 ± 0.29; nH (Hill coefficient) (RDLA2'V; GABA concentration-response): 2.20 ± 0.02; nH (Hill coefficient) (α1V2'Aβ2; GABA concentration-response): 1.14 ± 0.12; increase in GABA sensitivity, α1 2' mutation vs wild type (α1V2'Aβ2; α1V2'A-containing α1β2 and α1β2γ2 receptors): 20–50 fold; nH (Hill coefficient) (α1β2γ2 GABAA receptors; GABA concentration-response): 1.64 ± 0.16
4 | ClC1=C(Cl)[C@]2(Cl)[C@@H]3[C@@H]4C[C@@H]([C@H]5O[C@@H]45)[C@@H]3[C@@]1(Cl)C2(Cl)Cl [dieldrin, reference compound] | – | – | – | – | – | – | – | – | – | – | – | mortality / toxicity (in words) [3]: no significant mortality up to 72 h; LD50 ([2]; 24 h, wild-type flies): 0.002 mg/mL; LD50 ([2]; 48 h, wild-type flies): 0.002 mg/mL; LD50 ([2]; 72 h, wild-type flies): 0.0017 mg/mL; mortality / toxicity (in words) ([2]; wild-type (susceptible) flies): highly effective in killing
5 | N#Cc1nn(-c2c(Cl)cc(C(F)(F)F)cc2Cl)c(N)c1[S+]([O-])C(F)(F)F (stereo not shown) [fipronil] | – | – | – | – | – | – | – | – | – | – | – | U.S. Environmental Protection Agency ranking (humans): moderately toxic
6 | ginkgolide B [GB] | – | 0.94 ± 0.06 | 1.43 ± 0.29 | 1.43 ± 0.14 | 1.02 ± 0.20 | 1.13 ± 0.09 | – | 0.61 ± 0.06 | 0.171 | 0.031 | 0.010 | nH (Hill coefficient) (RDLT6'V; concentration-inhibition curve): 1.00 ± 0.70
